# In patent US7749491B2, “Compounds and methods to enhance rAAV transduction” (priority 2003, dated 2010):
# What was measured:
# HeLa cells = test: AAV2 FLAG-Luc transduction of HeLa cells (luciferase screen of agents); type: cell-based; conditions: for increase of transduction efficiency: MOI of 100, 2 hours infection, at the doses tested; for relative potency of anthracyclines: 0.6, 3 and 6 μg/mL
# Excerpt: A. To screen for agents that enhance rAAV transduction, any number of cells can be used. A range of concentrations of the agent to be tested can be determined based on, for instance desirable profiles of the agent, desirable toxicity profiles of the agent and/or concentration of the agents employed in vivo. The usefulness of the cell type chosen for the screen can be confirmed by testing compounds, e.g., proteosome inhibitors described in Example 1 such as LLnL and ZLL which are known to increase rAAV transduction. For example, a AAV2 FLAG-Luc vector was employed to transduce HeLa, ferret fibroblasts, IB3 and Huh (liver) cells in the presence or absence of the proteosome inhibitor MG132. MG132 was confirmed to enhance AAV transduction in all cell types tested: HeLa cell transduction was enhanced about 500-fold at 80 μM, and 200-fold at 40 μM, MG132; ferret fibroblast cell transduction was enhanced about 200-fold at 20 μM, and 17-fold at 4 μM, MG132; IB3-1 cell transduction was enhanced about 30 to 70-fold at 20 to 80 μM MG132; and Huh-7 cell transduction was enhanced about 15-fold at 20 to 80 μM MG132. There was no difference in rAAV transduction efficiency in HeLa cells when either DMSO or ETOH was used as a vehicle for MG132. B. HeLa cells were selected to screen for additional agents that enhance rAAV transduction, although any cell strain or line; or primary cells, may be employed. […] The range of concentrations of the agents to be tested were selected based on solubility profiles, toxicity profiles and/or concentrations previously employed in vivo.
# HeLa cells were infected for 2 hours with an MOI of 100 rAAV in the presence of agents, e.g., ritonavir (Norvir) (1, 10 and 100 μM), cyclosporin A (2.5, 25 and 250 μg/ml), epoxomicin (1, 10 and 50 μM), alcacinomycin A (5, 50 or 500 μM), chymostatin (1, 10 and 100 μM), bestatin (1, 10 and 100 μM), doxorubicin (adriamycin) (0.1, 1 and 10 μM), camptothecin (camptosar) (1, 10 and 100 μM), eicosapentanoic acid (1, 10 and 100 μM), tannic acid (2, 20, 200 and 2000 μM), simvastatin, prodrug (2, 20 and 200 μM), cisplatin (0.2, 2 and 20 μg/mL), and chloroquine (4, 40 and 400 μM). Forty-eight hours after infection, cells were harvested for analysis. rAAV transduction was measured by removing the media from the cell cultures, adding 100 μL reporter lysis buffer (RLB) and freezing. The supernatant was thawed and transferred to microfuge tubes, freeze thawed an additional 2 times, clarified by centrifugation for 10 minutes and then analyzed for reporter gene expression on the luminometer. Protein was determined by Bradford analysis and results were expressed as relative light units per mg protein (RLU/mg).
# Based on results with doxorubicin, a small number of FDA approved anthracyclines were tested for their relative in vitro and in vivo activities on AAV transduction. HeLa cells were infected with 100 ppc AAV2FLAG-Luc for 2 hours in the presence of different anthracyclines, e.g., doxorubicin, daunarubicin (Cerubidine), epirubicin (Ellence™), and idarubicin (Idamycin®), and cells harvested 48 hours later. The anthracyclines were pharmaceutical grade, and prepared according to the manufacturer's instructions. Prior to use, the agents were diluted in sterile water to an equal mass, e.g., 0.6 μg/mL, 3 μg/mL and 6 μg/mL. For example, 3 μg/mL idamycin increased luciferase expression by over 5000-fold while doxorubin increased luciferase expression by 58-fold. Generally, the potency was as follows: idarubicin>daunarubicin>epirubicin>doxorubicin.
# [1] = test system: polarized human bronchial epithelial cells; type: cell-based; conditions: for rAAV transduction from the apical surface: apical infection, data not shown; for rAAV transduction from the basolateral surface with ubiquitin ligase inhibitors: both inhibitors combined, 2 mM pretreatment 60 minutes, then 0.2 mM
# Method: Primary culture of human bronchial epithelia and reagents utilized. Primary human airway epithelial cells were collected by enzymatic digestion of bronchial samples from lung transplants, as previously described (Kondo et al., 1991; Zabner et al., 1996). Isolated primary airway cells were seeded at a density of 5×10^5 cells/cm^2 onto collagen-coated Millicell-HA culture inserts (Millipore Corp., Bedford, Mass.). Primary cultures were grown at the air-liquid interface for more than 2 weeks, by which time differentiation into a mucociliary epithelium occurs. The culture medium, used to feed only the basolateral side of the cells, contained 49% DMEM, 49% Ham's F12 and 2% Ultraser G (BioSepra, Cedex, France). Dimethyl Sulphoxide (DMSO), camptothecin (Camp), etoposide (Etop), aphidicolin (Aphi), hydroxyurea (HU) and genistein (Geni) were purchased from Sigma (St. Louis, Mo.). Tripeptidyl aldehyde proteasome inhibitors N-Acetyl-L-Leucyl-L-Leucyl-Norleucine (LLnL) and benzyloxycarbonyl-L-leucyl-L-leucyl-L-leucinal (Z-LLL) were purchased from Calbiochem-Novabiochem Corporation (La Jolla, Calif.). Ubiquitin ligase (E3) inhibitors were obtained from Bachem Bioscience Inc. (King of Prussia, Pa.). Anti-AAV capsid monoclonal antibody (Anti-VP1, 2 and 3) was purchased from American Research Products (Belmont, Mass.) and anti-ubiquitin antibody was purchased from Santa Cruz Biotechnology Inc. (Santa Cruz, Calif.).
# Transduction of polarized airway epithelial cells and primary human fibroblasts. rAAV infection of fully differentiated bronchial cells was performed as described in Duan et al. (1998). For infections from the apical surface of the airway cells, 5 μl rAAV was mixed with 50 μl of culture media and applied directly onto the apical compartment of Millicell inserts (MOI=10,000 particles/cell). During apical infection, the basolateral side of the Millicell was continuously bathed in culture media. Gene transfer to the basal side was performed by inverting Millicell inserts and applying viral vector to the bottom of the supporting filter membrane in a 50 μl volume for 2 hours. Subsequently, Millicell inserts were returned to the upright position, in the continued presence of the original viral inoculum plus an additional 450 μl of media. For both apical and basolateral infections, rAAV containing media was removed after 24 hours and replaced with either fresh culture media (for the basal side) or exposed to air (for the apical side). To test the effect of different agents on the efficiency of AAV transduction in polarized airway cells, 1 μl of each solution was mixed with AAV prior to infection of airway epithelia. Agents were usually presented during the 24 hours AAV infection period unless indicated otherwise. Most of the agents were dissolved in DMSO except for hydroxyurea (dissolved in phosphate buffered saline), H-Leu-Ala-OH (dissolved in 0.9% glacial acetic acid) and H-His-Ala-OH (dissolved in 50% methanol). The working concentrations of the agents were as follows: 0.1 μM camptothecin, 10 μM etoposide, 5 μg/ml aphidicolin, 40 mM hydroxyurea, 50 μM genistein, 40 μM LLnL and 4 μM Z-LLL. When the ubiquitin ligase (E3) inhibitors (H-Leu-Ala-OH and H-His-Ala-OH) were used, airway cells were pretreated with a combination of both inhibitors at a final concentration of 2 mM for 60 minutes prior to infection, followed by the continued presence of inhibitor (0.2 mM) during the entire 24 hours infection period from the basolateral surface. Studies involving EGTA treatment were performed by transiently treating the apical membrane of polarized airway epithelia with 3 mM EGTA in water for 10 minutes (Duan et al., 1998). Following hypotonic EGTA treatment, cultures were washed twice with culture medium and infected with rAAV in the presence or absence of 40 μM LLnL. Human primary fibroblast cells (P4) were maintained in 10% fetal bovine serum (FBS), 1% penicillin and streptomycin, and 89% DMEM. […]
compound,measurement,setting,value
CC[C@@]1(O)C(=O)OCc2c1cc1n(c2=O)Cc2cc3ccccc3nc2-1 [camptothecin],increase of transduction efficiency,HeLa cells; harvested 48 hours,15 fold
same,rAAV transduction from the apical surface,[1],none of these agents facilitated rAAV transduction from the apical surface
N.N.[Cl][Pt][Cl] [cisplatin],increase of transduction efficiency,HeLa cells; harvested 48 hours,16 fold
COc1cccc2c1C(=O)c1c(O)c3c(c(O)c1C2=O)C[C@@](O)(C(C)=O)C[C@@H]3O[C@H]1C[C@H](N)[C@H](O)[C@H](C)O1 [daunarubicin],relative potency of anthracyclines,HeLa cells,idarubicin>daunarubicin>epirubicin>doxorubicin
CC[C@H](C)[C@H](NC(=O)[C@H]([C@@H](C)CC)N(C)C(C)=O)C(=O)N[C@H](C(=O)N[C@@H](CC(C)C)C(=O)[C@@]1(C)CO1)[C@@H](C)O [epoxomicin],increase of transduction efficiency,HeLa cells; harvested 48 hours,≤ 120 fold
COc1cc([C@@H]2c3cc4c(cc3[C@@H](O[C@@H]3O[C@@H]5CO[C@@H](C)O[C@H]5[C@H](O)[C@H]3O)[C@H]3COC(=O)[C@H]23)OCO4)cc(OC)c1O [etoposide],rAAV transduction from the apical surface,[1],none of these agents facilitated rAAV transduction from the apical surface
O=c1c(-c2ccc(O)cc2)coc2cc(O)cc(O)c12 [genistein],rAAV transduction from the apical surface,[1],none of these agents facilitated rAAV transduction from the apical surface
"CC(=O)[C@]1(O)Cc2c(O)c3c(c(O)c2[C@@H](O[C@H]2C[C@H](N)[C@H](O)[C@H](C)O2)C1)C(=O)c1ccccc1C3=O [idamycin, idarubicin]",increase of luciferase expression,"HeLa cells; 3 μg/mL, 100 ppc AAV2FLAG-Luc 2 hours, harvested 48 hours",over 5000 fold
same,relative potency of anthracyclines,HeLa cells,idarubicin>daunarubicin>epirubicin>doxorubicin
CC[C@H](C)C(=O)O[C@H]1C[C@@H](C)C=C2C=C[C@H](C)[C@H](CC[C@@H]3C[C@@H](O)CC(=O)O3)[C@H]21 [lovastatin],outcome in cell line screening,HeLa cells; HeLa screen,negative results
CCC(C)(C)C(=O)O[C@H]1C[C@@H](C)C=C2C=C[C@H](C)[C@H](CC[C@@H]3C[C@@H](O)CC(=O)O3)[C@H]21 [simvastatin],increase of transduction efficiency,HeLa cells; harvested 48 hours,4 fold
O=C(OC[C@H]1O[C@@H](OC(=O)c2cc(O)c(O)c(OC(=O)c3cc(O)c(O)c(O)c3)c2)[C@H](OC(=O)c2cc(O)c(O)c(OC(=O)c3cc(O)c(O)c(O)c3)c2)[C@@H](OC(=O)c2cc(O)c(O)c(OC(=O)c3cc(O)c(O)c(O)c3)c2)[C@@H]1OC(=O)c1cc(O)c(O)c(OC(=O)c2cc(O)c(O)c(O)c2)c1)c1cc(O)c(O)c(OC(=O)c2cc(O)c(O)c(O)c2)c1 [tannic acid],increase of transduction efficiency,HeLa cells; harvested 48 hours,17 fold
H-His-Ala-OH,rAAV transduction from the basolateral surface with ubiquitin ligase inhibitors,[1],enhanced rAAV transduction from the basolateral surface
H-Leu-Ala-OH,rAAV transduction from the basolateral surface with ubiquitin ligase inhibitors,[1],enhanced rAAV transduction from the basolateral surface
